We go through eight molecules from patent US9708336B2, “Metallo-beta-lactamase inhibitors” (priority 2014, dated 2017).

By IC50 is commonly meant the concentration at which inhibition is half-maximal.

Read-outs that look alike come from different tables or passages of the source.

The target of one assay is NDM-1 (Klebsiella pneumoniae, UniProt C7C422). Briefly: biochemical. The following applies: NDM-1 enzyme, CCF2-FA fluorescence assay; read-out: NDM-1 IC50. The assay is classed as biochemical.
NDM-1, sequence (C7C422 whole entry, looked up, species assumed): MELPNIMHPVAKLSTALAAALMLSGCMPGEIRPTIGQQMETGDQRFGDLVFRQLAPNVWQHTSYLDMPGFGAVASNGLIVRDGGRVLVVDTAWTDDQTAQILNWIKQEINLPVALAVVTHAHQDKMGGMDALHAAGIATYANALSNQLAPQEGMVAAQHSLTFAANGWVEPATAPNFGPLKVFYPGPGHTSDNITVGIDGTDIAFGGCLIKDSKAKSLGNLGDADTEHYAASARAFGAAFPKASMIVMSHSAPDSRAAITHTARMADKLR
For the next assay, the target named is IMP-1 (Serratia marcescens, UniProt P52699). Briefly: biochemical. The assay is classed as biochemical. Particulars: IMP-1 enzyme, CCF2-FA fluorescence assay; read-out: IMP-1 IC50.
IMP-1, sequence (P52699 whole entry, looked up): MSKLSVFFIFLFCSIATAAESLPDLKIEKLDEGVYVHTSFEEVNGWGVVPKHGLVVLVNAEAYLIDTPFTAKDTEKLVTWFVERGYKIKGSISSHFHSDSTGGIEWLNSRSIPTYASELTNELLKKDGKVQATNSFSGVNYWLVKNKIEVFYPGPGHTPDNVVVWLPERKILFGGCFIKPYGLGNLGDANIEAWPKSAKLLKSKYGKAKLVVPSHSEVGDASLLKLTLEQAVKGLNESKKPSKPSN
Another assay deals with VIM-1 (Pseudomonas aeruginosa (strain ATCC 15692 / DSM 22644 / CIP 104116 / JCM 14847 / LMG 12228 / 1C / PRS 101 / PAO1), UniProt A0A0F7KYQ8). Briefly: Enzyme activity: determination of IC50, fluorescence assay with CCF2-FA substrate (VIM-1). Format: biochemical. Particulars: CCF2-FA fluorescence assay.
Assay [1] deals with Escherichia coli expressing NDM-1 (CLB30016). Briefly: Antibiotic potentiation activity: synergistic concentration (MITC95) with imipenem, OD600 growth. Format: cell-based. Particulars: Escherichia coli expressing NDM-1 (CLB30016), 95% growth inhibition. In a few lines:
(§1)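 Each strain, suspended in saline from overnight colonies and diluted 1:100 into 1.1× CAMHB, is dosed with imipenem at 4 μg/ml (or 1 μg/ml) plus compound, incubated 22–24 h at 35 °C and read by absorbance.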

Assay [2] relates to Klebsiella pneumoniae expressing VIM-1 (IHMA599644). The description is as above. Format: cell-based. The following applies: Klebsiella pneumoniae expressing VIM-1 (IHMA599644), 95% growth inhibition. In a few lines:
as §1

Assay [3] concerns Serratia marcescens expressing IMP-1 (CL5741). The assay is described as above. Format: cell-based. The following applies: Serratia marcescens expressing IMP-1 (CL5741), 95% growth inhibition. In a few lines: as §1
Setting [4] is: VIM-1 enzyme, read-out: VIM-1 IC50.

Consider `NS(=O)(=O)c1cccc(-c2ccc(CNCC3(O)CC3)cc2)c1-c1nnn[nH]1` [Example 380, 4′-({[(1-hydroxycyclopropyl)methyl]amino}methyl)-2-(1H-tetrazol-5-yl)biphenyl-3-sulfonamide], for which the IC50 is 0.0222 µM on NDM-1; 0.335 µM on IMP-1; 0.263 µM against VIM-1 (VIM-1 IC50, VIM-1 enzyme). Also, the “Escherichia coli MITC95” value in assay [1] was determined as 1.563 µM. The “Klebsiella pneumoniae MITC95” value in assay [2] amounted to 62.5 µM. Besides, the “Serratia marcescens MITC95” value in assay [3] was 4.688 µM.
As for `NS(=O)(=O)c1cccc(-c2ccc(CNCc3nn[nH]n3)cc2)c1-c1nnn[nH]1` [Example 381, 2-(1H-tetrazol-5-yl)-4′-{[(2H-tetrazol-5-ylmethyl)amino]methyl}biphenyl-3-sulfonamide], the results for the IC50 on NDM-1, on IMP-1 and on VIM-1 (setting [4]) were 0.00225 µM, 0.0254 µM and 0.357 µM, respectively. Moreover, the “Escherichia coli MITC95” value in assay [1] stood at 1.563 µM. Also, in assay [2], the “Klebsiella pneumoniae MITC95” value worked out at 50 µM. Further, in assay [3], the “Serratia marcescens MITC95” value came to 0.7813 µM.
Take `NS(=O)(=O)c1cccc(-c2ccc(CNCCc3ncc[nH]3)cc2)c1-c1nnn[nH]1` [Example 382, 4′-({[2-(1H-imidazol-2-yl)ethyl]amino}methyl)-2-(1H-tetrazol-5-yl)biphenyl-3-sulfonamide]: the figures for the IC50 on NDM-1, on IMP-1 and at VIM-1 (setting [4]) were 0.0128 µM, 0.212 µM and 0.22 µM, respectively. In assay [1], the “Escherichia coli MITC95” value was found to be 1.563 µM. Moreover, in assay [2], the “Klebsiella pneumoniae MITC95” value turned out to be 50 µM. In addition, in assay [3], the “Serratia marcescens MITC95” value came out at 3.125 µM.
As to `NS(=O)(=O)c1cccc(-c2ccc(CNCCn3nccn3)cc2)c1-c1nnn[nH]1` [Example 383, 2-(1H-tetrazol-5-yl)-4′-({[2-(2H-1,2,3-triazol-2-yl)ethyl]amino}methyl)biphenyl-3-sulfonamide], the IC50 at NDM-1 was 0.00466 µM; at IMP-1, 0.0516 µM; at VIM-1 (setting [4]), 0.269 µM. The “Escherichia coli MITC95” value in assay [1] worked out at 1.563 µM. Moreover, the “Klebsiella pneumoniae MITC95” value in assay [2] came to 200 µM. The “Serratia marcescens MITC95” value in assay [3] amounted to 1.563 µM.
As to `NS(=O)(=O)c1cccc(-c2ccc(CNCCc3c[nH]cn3)cc2)c1-c1nnn[nH]1` [Example 384, 4′-({[2-(1H-imidazol-4-yl)ethyl]amino}methyl)-2-(1H-tetrazol-5-yl)biphenyl-3-sulfonamide], the IC50 was determined as 0.0136 µM at NDM-1, 0.293 µM at IMP-1 and 0.225 µM at VIM-1 (setting [4]). Also, the “Escherichia coli MITC95” value in assay [1] came to 1.953 µM. Moreover, in assay [2], the “Klebsiella pneumoniae MITC95” value came to 50 µM. For the same molecule, the “Serratia marcescens MITC95” value in assay [3] is 4.688 µM.
In the case of `NS(=O)(=O)c1cccc(-c2ccc(CNCCc3cn[nH]c3)cc2)c1-c1nnn[nH]1` [Example 385, 4′-({[2-(1H-pyrazol-4-yl)ethyl]amino}methyl)-2-(1H-tetrazol-5-yl)biphenyl-3-sulfonamide], the IC50 on NDM-1 was 0.0125 µM; on IMP-1, 0.499 µM; at VIM-1 (setting [4]) it was 0.357 µM. Moreover, the “Escherichia coli MITC95” value in assay [1] amounted to 1.563 µM. For the same molecule, in assay [2], the “Klebsiella pneumoniae MITC95” value stood at 50 µM. Besides, the “Serratia marcescens MITC95” value in assay [3] was found to be 6.25 µM.
For `NS(=O)(=O)c1cccc(-c2ccc(CN3CCNC(=O)C3)cc2)c1-c1nnn[nH]1` [Example 386, 4′-[(3-oxopiperazin-1-yl)methyl]-2-(1H-tetrazol-5-yl)biphenyl-3-sulfonamide], the values for the IC50 on NDM-1, at IMP-1 and at VIM-1 (setting [4]) were 0.00323 µM, 0.032 µM and 0.12 µM, respectively. In addition, in assay [1], the “Escherichia coli MITC95” value stood at 6.25 µM. Besides, in assay [2], the “Klebsiella pneumoniae MITC95” value was more than 200 µM. In assay [3], the “Serratia marcescens MITC95” value is 1.563 µM.
As to `NS(=O)(=O)c1cccc(-c2ccc(CN3C[C@H](O)C[C@H]3CO)cc2)c1-c1nnn[nH]1` [Example 387, 4′-{[(2S,4R)-4-hydroxy-2-(hydroxymethyl)pyrrolidin-1-yl]methyl}-2-(1H-tetrazol-5-yl)biphenyl-3-sulfonamide], the half-inhibitory concentration (IC50) was 0.0106 µM at NDM-1, 0.145 µM at IMP-1 and 0.445 µM at VIM-1 (setting [4]). Besides, the “Escherichia coli MITC95” value in assay [1] was determined as 2.344 µM. Also, the “Klebsiella pneumoniae MITC95” value in assay [2] was found to be 100 µM. In addition, in assay [3], the “Serratia marcescens MITC95” value amounted to 3.125 µM.
